Measurements reported in patent US12168673B2 (Mitopower, Inc., priority 2022, dated 2024).

How the values were obtained:
[1] = Solid state stability (purity by UPLC); assay type: physicochemical
Description: Compounds 100, 101 and 102 were kept in glass vials at three different locations at temperatures of […], 2-8° C. and −20° C. in order to assess solid state stability at room temperature, refrigerated conditions and in a deep freezer. The compounds from these vials were assessed for purity by UPLC at three different timepoints 0 hrs, 24 hrs and 48 hrs. Table 2 depicts the results obtained for solid state stability at 25° C., 2-8° C. and −20° C. respectively. Purity measurements were made at 0 hrs, 24 hours and 48 hours.

[2] = Stability in solutions (pH range, simulated gastric fluid, simulated intestinal fluid); assay type: physicochemical
Description: 1 mg/ml solutions of compound 100 were prepared in each buffer, diluted to 0.1 mg/ml in methanol at each time point and analyzed as follows: Gemini C-18, 250×4.6 mm, 5 im, Mobile Phase: Methanol Isocratic Flow Rate: 0.4 mL/min.

Jurkat Cells = assay: Cellular NAD+ levels in Jurkat cells (LCMS/MS); assay type: cell-based; settings: 30 μM, four hours of incubation
Description: Compounds 100, 101 and 102 were weighted out to prepare 60 μM stock solutions in RPMI media. 200 ng/mL solution of Rac-tenofovir d6 (Vivan Life-Sciences) was prepared in methanol (MeOH) and placed at −20° C. until use.
Jurkat Cells, sourced from NCCS Pune, were cultured in RPMI media containing FBS & Antibiotics. Cells from different flasks (90% confluent) were pooled into a 15 mL conical tube and centrifuged for 5 mins at 1200 rpm for 5 mins. The supernatant solution was discarded, and the pellet was washed with 5 mL sterile PBS (without Ca^2+ & Mg^2+). The tube was then centrifuged at 1200 rpm for 5 mins and the supernatant was discarded. The cell pellet was resuspended in 7 mL of RPMI media, and a cell count was done using 10 uL of the cell solution. 1.5 million cells from the cell solution were seeded into 1.5 mL microcentrifuge tubes. […] The tubes were placed in racks and gently swirled to mix the compounds into the media containing the cells. These tubes were then incubated for 4 hours in a 37° C. incubator at 5% CO2. After 4 hours of incubation the cells were spun down at 1000 rpm for 10 mins, the supernatant was discarded carefully, and cells were snap frozen in liquid nitrogen. When the samples were run, the extraction of the cells was on ice, cells were lysed using 20 uL deionized water and then ice cold 80% methanol containing the internal standard—Rac-Tenofovir D was added. The tubes were then vortexed at 2500 rpm for 8 minutes and then centrifuged at […] for 10 minutes. 150 uL of the supernatant was carefully transferred to HPLC vials and was analyzed for NAD^+ on the Abscised 4000 Q Trap LCMS/MS system. A C18, 3.5 μm, 2.1×100 mm, Bridge Column was used in the LC. The mobile phase consisted of 10 mM ammonium acetate with 0.1% acetic acid and 0.1% hexylamine as Solvent-A and 10 mM Ammonium acetate with 0.1% acetic acid and 0.1% hexylamine in 95/5 MeOH/H2O as Solvent-B. The gradient used was 0 mins-0.0% B, 0.5 mins-100% B, 1.5 mins-100% B, 3.0 mins-100% B, 3.1 mins-0.0% B, 7.0-STOP. The column flow rate was 0.5 mL/min. The sample injection volume was […].

[3] = Human hepatocyte clearance; assay type: in vitro ADME; settings: human hepatocytes
Description: A hepatocyte vial was taken out from the liquid nitrogen tank and was thawed in a water bath maintained at 37° C. The thawed cell suspension was transferred into a torsion tube containing 50 mL of thawing media (Xenotech). The thawing media containing hepatocytes was centrifuged at 1000 rpm for 5 min, the supernatant was discarded and the pellet was resuspended in 2 ml of Xenotech OptiIncubate Media. The cells were counted by using a haemocytometer after mixing an aliquot of cell suspension with equal volume of trypan blue. The cell suspension was diluted to a working density of 2 million cells with DMEM media without FBS/incubation media.
The assay was performed in duplicates (n=2). 150 μL of 2 million cell working stock of hepatocyte cell suspension was added to a 24 well plate and incubated in a 37° C. incubator, with speed of 500 RPM for 10 min. 150 μL of 2 μM working stock of test compound was incubated separately. The reaction at 0, 15, 30, 60 and 90 min was stopped by precipitating 20 μL of incubation mixture with 200 μL of acetonitrile containing internal standard. […] The supernatant was separated and diluted 1:1 with water before injecting in LC-MS/MS analysis.

Solid State Stability (% Purity) ([1]; 2-8° C., 0 hr): 95.28%
Solid State Stability (% Purity) ([1]; 2-8° C., 24 hr): 95.18%
Solid State Stability (% Purity) ([1]; 2-8° C., 48 hr): 95.45%
Solid State Stability (% Purity) ([1]; 25° C., 0 hr): 95.60%
Solid State Stability (% Purity) ([1]; 25° C., 24 hr): 95.55%
Solid State Stability (% Purity) ([1]; 25° C., 48 hr): 95.23%
Solid State Stability (% Purity) ([1]; −20° C., 0 hr): 95.26%
Solid State Stability (% Purity) ([1]; −20° C., 24 hr): 95.27%
Solid State Stability (% Purity) ([1]; −20° C., 48 hr): 95.28%
% remaining ([2]; SGF (simulated gastric fluid), 0 h): 95.54%
% remaining ([2]; SGF (simulated gastric fluid), 1 week): 91.04%
% remaining ([2]; SGF (simulated gastric fluid), 1 h): 94.73%
% remaining ([2]; SGF (simulated gastric fluid), 2 h): 93.68%
% remaining ([2]; SGF (simulated gastric fluid), 4 h): 93.65%
% remaining ([2]; SGF (simulated gastric fluid), 8 h): 93.69%
% remaining ([2]; SGF (simulated gastric fluid), 24 h): 93.61%
% remaining ([2]; SGF (simulated gastric fluid), 48 h): 93.58%
% remaining ([2]; SIF (simulated intestinal fluid), 0 h): 96.45%
% remaining ([2]; SIF (simulated intestinal fluid), 1 week): 84.49%
% remaining ([2]; SIF (simulated intestinal fluid), 1 h): 96.01%
% remaining ([2]; SIF (simulated intestinal fluid), 2 h): 96.02%
% remaining ([2]; SIF (simulated intestinal fluid), 4 h): 95.96%
% remaining ([2]; SIF (simulated intestinal fluid), 8 h): 95.77%
% remaining ([2]; SIF (simulated intestinal fluid), 24 h): 94.28%
% remaining ([2]; SIF (simulated intestinal fluid), 48 h): 93.75%
% remaining ([2]; pH 1, 0 h): 95.73%
% remaining ([2]; pH 1, 1 week): 95.56%
% remaining ([2]; pH 1, 1 h): 95.69%
% remaining ([2]; pH 1, 2 h): 95.64%
% remaining ([2]; pH 1, 4 h): 95.61%
% remaining ([2]; pH 1, 8 h): 95.64%
% remaining ([2]; pH 1, 24 h): 95.61%
% remaining ([2]; pH 1, 48 h): 95.64%
% remaining ([2]; pH 2, 0 h): 95.67%
% remaining ([2]; pH 2, 1 week): 95.39%
% remaining ([2]; pH 2, 1 h): 95.65%
% remaining ([2]; pH 2, 2 h): 95.66%
% remaining ([2]; pH 2, 4 h): 95.64%
% remaining ([2]; pH 2, 8 h): 95.67%
% remaining ([2]; pH 2, 24 h): 95.56%
% remaining ([2]; pH 2, 48 h): 95.54%
% remaining ([2]; pH 4, 0 h): 95.37%
% remaining ([2]; pH 4, 1 week): 94.76%
% remaining ([2]; pH 4, 1 h): 95.32%
% remaining ([2]; pH 4, 2 h): 95.27%
% remaining ([2]; pH 4, 4 h): 95.25%
% remaining ([2]; pH 4, 8 h): 95.26%
% remaining ([2]; pH 4, 24 h): 95.26%
% remaining ([2]; pH 4, 48 h): 95.05%
% remaining ([2]; pH 6, 0 h): 96.31%
% remaining ([2]; pH 6, 1 week): 94.47%
% remaining ([2]; pH 6, 1 h): 96.32%
% remaining ([2]; pH 6, 2 h): 96.26%
% remaining ([2]; pH 6, 4 h): 96.27%
% remaining ([2]; pH 6, 8 h): 96.25%
% remaining ([2]; pH 6, 24 h): 95.73%
% remaining ([2]; pH 6, 48 h): 95.66%
% remaining ([2]; pH 7.4, 0 h): 95.8%
% remaining ([2]; pH 7.4, 1 week): 61.5%
% remaining ([2]; pH 7.4, 1 h): 95.7%
% remaining ([2]; pH 7.4, 2 h): 94.95%
% remaining ([2]; pH 7.4, 4 h): 94.34%
% remaining ([2]; pH 7.4, 8 h): 93.43%
% remaining ([2]; pH 7.4, 24 h): 90.13%
% remaining ([2]; pH 7.4, 48 h): 83.6%
% remaining ([2]; pH 9, 0 h): 94.05%
% remaining ([2]; pH 9, 1 week): 0%
% remaining ([2]; pH 9, 1 h): 74.72%
% remaining ([2]; pH 9, 2 h): 56.28%
% remaining ([2]; pH 9, 4 h): 49.14%
% remaining ([2]; pH 9, 8 h): 23.34%
% remaining ([2]; pH 9, 24 h): 14.94%
% remaining ([2]; pH 9, 48 h): 0.63%
half-life at 1 μM [3]: 45.7 min
hepatocyte CLint at 1 μM [3]: 15.2 µL/min/1e6 cells
SMILES: O=C(OC[C@H]1OC(O)[C@H](O)[C@@H]1O)c1ccccn1 (stereo partly shown) [Compound 102, (3,4,5-trihydroxytetrahydrofuran-2-yl) methyl picolinate]
NAD+ level increase compared to untreated cells (Jurkat Cells): showed statistical significance in terms of NAD^+ level increases
